Data: patent US9624247B2, “Pyrazolo-pyrrolidin-4-one derivatives as bet inhibitors and their use in the treatment of disease” (NOVARTIS AG, priority 2013, dated 2017)

Tests used:
[1] = molecular target: nuclear BRD4-NUT foci in HCC2494 NUT midline carcinoma cells (Homo sapiens (Human), UniProt O60885+Q86Y26); experiment: Nut-foci formation assay (HCS); type: cell-based; details: 24 hours, NUT-foci immunofluorescence
Procedure: HCC2494 NUT midline carcinoma cells (expressing BRD4-NUT-fusion) were obtained from the University of Texas Southwestern and cultured in RPMI-1640 medium containing 10% Foetal Calf Serum at 37° C. in a humidified 5% CO2 incubator.
Compound-mediated inhibition of BRD4 activity was monitored by quantification of the number and intensity of nuclear BRD4-NUT foci using automated immunofluorescence microscopy. Briefly, 5000 cells in 20 μl fresh medium were seeded into Poly-D-Lysine-precoated 384-well plates and incubated overnight at 37° C. and 5% CO2, followed by addition of 5 μl medium containing compound dilutions at 5-fold their final intended concentration. Dose-response effects were assessed by 3-fold serial dilutions of the test compound, starting at 10 μM. Following incubation of the cells for 24 hours at 37° C. and 5% CO2, the cells were fixed by incubation with 3.7% formaldehyde for 10 min, followed by immunofluorescence staining using rabbit anti-NUT (Cell Signaling Technologies, Cat#3625) as primary, and AlexaFluor488-labeled goat anti-rabbit (Invitrogen, Cat#A11008) as secondary antibody (latter complemented with 1 μg/mL Hoechst33342 as DNA dye). Assay plates were imaged using the appropriate filter sets on the Cellomics VTi automated fluorescence microscopy platform (ThermoFisher Scientific) and the population average of the number of NUT-foci per nucleus is quantified using the Cellomics Spot Detection BioApplication image analysis algorithm (ThermoFisher Scientific). The effect of a particular test compound concentration on NUT-foci number and intensity is expressed as percentage of the value obtained for cells treated with vehicle only (DMSO, 0.1% final concentration), which was set as 100. Compound concentrations leading to half-maximal (IC50) inhibition of the aforementioned readout parameters were determined using standard four parameter curve fitting.

BRD4 (His-Brd4(44-477)) = BRD4 (His-Brd4(44-477)) (Homo sapiens (Human), UniProt O60885); experiment: TR-FRET in-vitro binding assay for BRD4; details: acetyl-histone H4 peptide
BRD3 (His-Brd3(20-477)) = BRD3 (His-Brd3(20-477)) (Homo sapiens (Human), UniProt Q15059); experiment: TR-FRET in-vitro binding assay for BRD3; details: acetyl-histone H4 peptide
Sequence of BRD3 (His-Brd3(20-477)) (Q15059 20-477): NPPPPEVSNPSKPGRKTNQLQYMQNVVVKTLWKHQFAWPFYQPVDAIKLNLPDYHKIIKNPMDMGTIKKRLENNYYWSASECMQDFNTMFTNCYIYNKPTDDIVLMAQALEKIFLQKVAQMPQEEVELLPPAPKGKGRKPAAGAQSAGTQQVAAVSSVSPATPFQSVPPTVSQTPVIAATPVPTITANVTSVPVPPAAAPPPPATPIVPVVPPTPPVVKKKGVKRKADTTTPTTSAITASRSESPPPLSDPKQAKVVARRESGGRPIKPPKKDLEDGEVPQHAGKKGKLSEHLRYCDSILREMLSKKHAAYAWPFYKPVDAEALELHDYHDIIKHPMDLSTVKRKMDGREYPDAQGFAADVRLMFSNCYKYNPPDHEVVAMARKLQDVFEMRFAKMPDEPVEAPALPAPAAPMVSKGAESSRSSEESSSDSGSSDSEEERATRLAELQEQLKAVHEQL

BRD2 (His-Brd2(60-472)) = BRD2 (His-Brd2(60-472)) (Homo sapiens (Human), UniProt P25440); experiment: TR-FRET in-vitro binding assay for BRD2; details: acetyl-histone H4 peptide
Sequence of BRD2 (His-Brd2(60-472)) (P25440 60-472): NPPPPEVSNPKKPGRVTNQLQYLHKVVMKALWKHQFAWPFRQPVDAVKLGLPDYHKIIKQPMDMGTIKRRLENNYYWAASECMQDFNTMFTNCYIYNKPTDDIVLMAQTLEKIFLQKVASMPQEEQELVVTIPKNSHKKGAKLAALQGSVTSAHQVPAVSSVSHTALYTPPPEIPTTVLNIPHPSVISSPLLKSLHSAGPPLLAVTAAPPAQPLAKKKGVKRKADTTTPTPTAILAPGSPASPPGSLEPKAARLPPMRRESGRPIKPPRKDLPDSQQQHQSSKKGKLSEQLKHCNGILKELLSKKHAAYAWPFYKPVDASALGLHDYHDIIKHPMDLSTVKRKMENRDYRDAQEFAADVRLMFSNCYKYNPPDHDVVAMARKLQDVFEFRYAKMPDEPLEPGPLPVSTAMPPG

| SMILES | IC50 [1] [nM] | IC50 (BRD4 (His-Brd4(44-477))) [nM] | IC50 (BRD3 (His-Brd3(20-477))) [nM] | IC50 (BRD2 (His-Brd2(60-472))) [nM] |
| --- | --- | --- | --- | --- |
| Cc1cc(N2C(=O)c3c(C4CC4)nn(C)c3C2c2ccc(Cl)cc2)cn2c(C)nnc12 (centres unmarked) [Example 1, 6-(4-chlorophenyl)-3-cyclopropyl-5-(3,8-dimethyl-[1,2,4]triazolo[4,3-a]pyridin-6-yl)-1-methyl-5,6-dihydropyrrolo[3,4-c]pyrazol-4(1H)-one] | 16.2 | 24 | 31 | 29 |
| Cc1nnc2c(NC(=O)OC(C)(C)C)cc(N3C(=O)c4c(C5CC5)nn(C)c4C3c3ccc(Cl)cc3)cn12 (centres unmarked) [Example 27, tert-butyl (6-(6-(4-chlorophenyl)-3-cyclopropyl-1-methyl-4-oxopyrrolo[3,4-c]pyrazol-5(1H,4H,6H)-yl)-3-methyl-[1,2,4]triazolo[4,3-a]pyridin-8-yl)carbamate] | 22.4 | 36 | 65 | 47 |
| COc1cc(N2C(=O)c3c(C4CC4)nn(C)c3C2c2ccc(Cl)cc2)cc2c1nnn2C (centres unmarked) [Example 6] | 54.8 | 22 | 25 | 38 |
| COCCn1nc(C2CC2)c2c1C(c1ccc(Cl)cc1)N(c1cc(C)c3nnc(C)n3c1)C2=O (racemic) [Example 4, 6-(4-chlorophenyl)-3-cyclopropyl-5-(3,8-dimethyl-[1,2,4]triazolo[4,3-a]pyridin-6-yl)-1-(2-methoxyethyl)-5,6-dihydropyrrolo[3,4-c]pyrazol-4(1H)-one] | 9.04 | < 11 | < 11 | 17 |
| COCCn1nc(C2CC2)c2c1C(c1ccc(Cl)cc1)N(c1cc(C)c3nnc(CF)n3c1)C2=O (centres unmarked) [Example 18, 6-(4-chlorophenyl)-3-cyclopropyl-5-(3-(fluoromethyl)-8-methyl-[1,2,4]triazolo[4,3-a]-pyridin-6-yl)-1-(2-methoxyethyl)-5,6-dihydropyrrolo[3,4-c]pyrazol-4(1H)-one] | 3.65 | 25 | 24 | 33 |
| CCOC(=O)Nc1cc(N2C(=O)c3c(C4CC4)nn(C)c3C2c2ccc(Cl)cc2)cn2c(C)nnc12 (centres unmarked) [Example 29, ethyl (6-(6-(4-chlorophenyl)-3-cyclopropyl-1-methyl-4-oxopyrrolo[3,4-c]pyrazol-5-(1H,4H,6H)-yl)-3-methyl-[1,2,4]triazolo[4,3-a]pyridin-8-yl)carbamate] | 2.2 | 23 | 22 | 23 |
| COc1cc(N2C(=O)c3c(C4CC4)nn(C)c3C2c2ccc(Cl)cc2)cn2c(C)nnc12 (racemic) [Example 5, 6-(4-chlorophenyl)-3-cyclopropyl-5-(8-methoxy-3-methyl-[1,2,4]triazolo[4,3-a]pyridin-6-yl)-1-methyl-5,6-dihydropyrrolo[3,4-c]pyrazol-4(1H)-one] | 36 | 28 | 44 | 54 |
| Cc1cc(N2C(=O)c3c(C4CC4)nn(C)c3[C@H]2c2ccc(Cl)cc2)cn2c(C(F)F)nnc12 [Example 7, (R)-6-(4-chlorophenyl)-3-cyclopropyl-5-(3-(difluoromethyl)-8-methyl-[1,2,4]triazolo-[4,3-a]pyridin-6-yl)-1-methyl-5,6-dihydropyrrolo[3,4-c]pyrazol-4(1H)-one] | 2.14 | < 11 | 12 | 13 |
| Cc1cc(N2C(=O)c3c(C4CC4)nn(C)c3C2c2ccc(Cl)cc2)cn2c(C(F)F)nnc12 (racemic) [Example 3, 6-(4-chlorophenyl)-3-cyclopropyl-5-(3-(difluoromethyl)-8-methyl-[1,2,4]triazolo[4,3-a]pyridin-6-yl)-1-methyl-5,6-dihydropyrrolo[3,4-c]pyrazol-4(1H)-one] | 8.27 | < 11 | < 11 | 13 |
| Cc1cc(N2C(=O)c3c(C4CC4)nn(C)c3C2c2ccc(Cl)cc2)cn2c(CF)nnc12 (racemic) [Example 16, 6-(4-chlorophenyl)-3-cyclopropyl-5-(3-(fluoromethyl)-8-methyl-[1,2,4]triazolo[4,3-a]-pyridin-6-yl)-1-methyl-5,6-dihydropyrrolo[3,4-c]pyrazol-4(1H)-one] | 12.1 | 15 | 13 | 16 |
| Cc1cc(N2C(=O)c3c(C4CC4)nn(C)c3[C@H]2c2ccc(Cl)cc2)cn2c(C)nnc12 [Example 2, (R)-6-(4-chlorophenyl)-3-cyclopropyl-5-(3,8-dimethyl-[1,2,4]triazolo[4,3-a]pyridin-6-yl)-1-methyl-5,6-dihydropyrrolo[3,4-c]pyrazol-4(1H)-one] | 4.71 | < 11 | 12 | 11 |
